# Test results published in patent US9266880B2, “Substituted azaindazole compounds” (Bristol-Myers Squibb Company, priority 2010, dated 2016).
# Target: Human CYP17 (Homo sapiens (Human), UniProt P05093)
# Assay: CYP17 Total SPA Assay
# Type: biochemical
# Settings: microsomes from HEK2 cells stably transfected with CYP17; 3H-Pregnenolone 1 uM, NADPH 2 mM; 45 minutes at room temperature
# Procedure: The assays were performed in U-bottom 384-well optiplates. The final assay volume was 15 μl prepared from 7.5 μl additions of microsomes (prepared as a high-speed pellet from homogenized HEK2 cells stably transfected with CYP17), substrates (3H— Pregnenolone and NADPH) and test compounds in assay buffer (50 mM Potassium phosphate pH 7.2, 10% glycerol). The reaction was initiated by the combination of the microsomes and substrates in wells containing compound. The reaction was incubated at room temperature for 45 minutes and terminated by adding 7.5 μl of 0.2N HCl to each well. Following an incubation period of 10 minutes, anti-DHEA-coated SPA beads were added to the terminated reaction. The plate was sealed and incubated overnight with shaking at 4° C. The beads were allowed to settle in the plate for 1 hour and the plate read on a TOPCOUNT® (Perkin-Elmer) plate reader.
# Inhibition data were calculated by comparison to no enzyme control reactions for 100% inhibition and vehicle-only reactions for 0% inhibition. The final concentration of reagents in the assays are NADPH, 2 mM; 3H-Pregnenolone, 1 uM; microsomes, 1.25 ug/ml; Anti-DHEA-SPA beads (0.125 mg/well) in 0.5% Triton X-100 and DMSO, 0.05%. Dose response curves were generated to determine the concentration required inhibiting 50% of enzyme activity (IC50). Compounds were dissolved at 10 mM in dimethylsulfoxide (DMSO) and evaluated at eleven concentrations, each in duplicate. IC50 values were derived by non-linear regression analysis.
# Sequence of Human CYP17 (P05093 whole entry): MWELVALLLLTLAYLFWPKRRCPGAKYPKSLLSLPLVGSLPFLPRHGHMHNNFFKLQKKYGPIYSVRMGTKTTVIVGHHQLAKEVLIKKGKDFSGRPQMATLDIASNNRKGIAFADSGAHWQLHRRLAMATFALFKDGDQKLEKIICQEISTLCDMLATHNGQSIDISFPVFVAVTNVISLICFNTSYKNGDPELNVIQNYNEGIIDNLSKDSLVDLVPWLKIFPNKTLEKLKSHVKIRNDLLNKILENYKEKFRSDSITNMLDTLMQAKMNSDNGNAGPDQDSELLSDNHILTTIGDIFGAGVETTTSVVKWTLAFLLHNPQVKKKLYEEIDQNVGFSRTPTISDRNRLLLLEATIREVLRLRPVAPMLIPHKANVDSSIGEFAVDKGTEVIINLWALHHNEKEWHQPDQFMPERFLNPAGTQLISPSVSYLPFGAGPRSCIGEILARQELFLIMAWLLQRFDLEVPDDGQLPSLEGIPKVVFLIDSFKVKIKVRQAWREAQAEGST
row,IC50 [nM],SMILES
1,128,"Fc1ccc(-n2ncc3c(-c4cncc5ccccc45)ccnc32)cc1 [Example 1, 4-(1-(4-Fluorophenyl)-1H-pyrazolo[3,4-b]pyridin-4-yl)isoquinoline]"
2,640,"Fc1ccc(-n2ncc3c(-n4ccnc4)ccnc32)cc1 [Example 2, 1-(4-Fluorophenyl)-4-(1H-imidazol-1-yl)-1H-pyrazolo[3,4-b]pyridine]"
3,41,"Fc1ccc(-n2ncc3c(-c4cncc5ncccc45)ccnc32)cc1 [Example 3, 5-(1-(4-Fluorophenyl)-1H-pyrazolo[3,4-b]pyridin-4-yl)-1,7-naphthyridine]"
4,50,"Cn1cncc1-c1ccnc2c1cnn2-c1ccc(F)cc1 [Example 4, 1-(4-Fluorophenyl)-4-(1-methyl-1H-imidazol-5-yl)-1H-pyrazolo[3,4-b]pyridine]"
5,206,"NS(=O)(=O)c1cccc(-n2ncc3c(-c4cncc5ncccc45)ccnc32)c1 [Example 5, 3-(4-(1,7-Naphthyridin-5-yl)-1H-pyrazolo[3,4-b]pyridin-1-yl)benzenesulfonamide]"
6,271,"Cn1cncc1-c1ccnc2c1cnn2-c1cccc(S(N)(=O)=O)c1 [Example 6, 3-(4-(1-Methyl-1H-imidazol-5-yl)-1H-pyrazolo[3,4-b]pyridin-1-yl)benzenesulfonamide]"
7,23,"NS(=O)(=O)c1cccc(-n2ncc3c(-c4cncc5ccccc45)ccnc32)c1 [Example 7, 3-(4-(Isoquinolin-4-yl)-1H-pyrazolo[3,4-b]pyridin-1-yl)benzenesulfonamide]"
8,76,"Fc1ccc(-n2ncc3c(-c4cncn5cccc45)ccnc32)c(F)c1 [Example 8, 1-(2,4-Difluorophenyl)-4-(pyrrolo[1,2-c]pyrimidin-4-yl)-1H-pyrazolo[3,4-b]pyridine]"
